Data reported in patent US20060014790A1, “Methods of treatment of amyloidosis using spirocyclohexane aspartyl-protease inhibitors” (priority 2004, published 2006).

Key:
[1] = tested on: A-beta; experiment: Efficacy of compounds to inhibit A-beta concentration (% inhibition vs vehicle control); assay type: in vivo, rat
Method: Efficacious compounds of the present invention are those able to decrease the amount of A-beta produced compared to a control, where beta-secretase mediated cleavage is observed and measured in the absence of the compounds. Detection of efficacy can be by analysis of A-beta levels, for example, by immunoassay, fluorometric or chromogenic assay, HPLC, or other means of detection. The efficacy of the compounds of formula (I) was determined as a percentage inhibition corresponding to A-beta concentrations for tissue treated and untreated with compound.
The invention encompasses compounds of formula (I) that are efficacious.

[2] = target: catE / beta-secretase (BACE); experiment: CatE/BACE selectivity (ratio of IC50 values); assay type: biochemical; settings: each value is an average of four experimental runs; multiple values = more than one experiment
Method: Selectivity was calculated as a ratio of inhibition (IC50) values in which the inhibition of beta-secretase was compared to the inhibition of other aspartyl proteases.
Selectivity is reported as the ratio of IC50(catE):IC50(BACE).
In the following examples, each value is an average of four experimental runs and multiple values for one compound indicate that more than one experiment was conducted.

Compound	Efficacy (% Inhibition, 100 mg/kg) plasma [1]	Efficacy (% Inhibition, 100 mg/kg) cortex [1]	IC50 catE/IC50 BACE [2]
CSC1CCC(NCC(O)C(Cc2cc(F)cc(F)c2)NC(C)=O)(c2cccc(C(C)(C)C)c2)CC1 (stereo not shown) [Example 195-9, N-[3-[1-(3-tert-Butyl-phenyl)-4-methylsulfanyl-cyclohexylamino]-1-(3,5-difluoro-benzyl)-2-hydroxy-propyl]-acetamide]	38%		
CC(=O)NC(Cc1cc(F)cc(F)c1)C(O)CNC1(c2cccc(C(C)(C)C)c2)CCC(O)CC1 (single isomer, unassigned) [195-5 Diastereomer A, N-[3-[1-(3-tert-Butyl-phenyl)-4-hydroxy-cyclohexylamino]-1-(3,5-difluoro-benzyl)-2-hydroxy-propyl]-acetamide]	55%		
CONC1CCC(NCC(O)C(Cc2cc(F)cc(F)c2)NC(C)=O)(c2cccc(C(C)(C)C)c2)CC1 (single isomer, unassigned) [195-7 Diastereomer A, N-(4-(1-(3-tert-butylphenyl)-4-(methoxyamino)cyclohexylamino)-1-(3,5-difluorophenyl)-3-hydroxybutan-2-yl)acetamide]	50%		
CC(=O)NC(Cc1cc(F)cc(F)c1)C(O)CNC1(c2cccc(C(C)(C)C)c2)CCC(NO)CC1 (single isomer, unassigned) [195-8 Diastereomer A, N-(4-(1-(3-tert-butylphenyl)-4-(hydroxyamino)cyclohexylamino)-1-(3,5-difluorophenyl)-3-hydroxybutan-2-yl)acetamide]		7%	
CC(=O)NC(Cc1cc(F)cc(F)c1)C(O)CNC1(c2cccc(-n3cccn3)c2)CCCCC1 (stereo not shown) [Example 195-4, N-{1-(3,5-Difluoro-benzyl)-2-hydroxy-3-[1-(3-pyrazol-1-yl-phenyl)-cyclohexylamino]-propyl}-acetamide]	67%		
CC(=O)NC(Cc1cc(F)cc(F)c1)C(O)CNC1(c2cccc(C(C)(C)C)c2)CCCCC1 (stereo not shown) [Example 195-1, N-[3-[1-(3-tert-Butyl-phenyl)-cyclohexylamino]-1-(3,5-difluoro-benzyl)-2-hydroxy-propyl]-acetamide]	50%	62%	
CC(=O)NC(Cc1cc(F)cc(F)c1)C(O)CNC1(c2cccc(C(C)C)c2)CCC(=O)CC1 (stereo not shown) [Example 195-2, N-{1-(3,5-Difluoro-benzyl)-2-hydroxy-3-[1-(3-isopropyl-phenyl)-4-oxo-cyclohexylamino]-propyl}acetamide]	59%	47%	
CC(=O)NC(Cc1cc(F)cc(F)c1)C(O)CNC1(c2cccc(C(C)(C)C)c2)CCC(=O)CC1 (stereo not shown) [Example 195-3, N-[3-[1-(3-tert-Butyl-phenyl)-4-oxo-cyclohexylamino]-1-(3,5-difluoro-benzyl)-2-hydroxy-propyl]-acetamide]	58%		
COC1CCC(NCC(O)C(Cc2cc(F)cc(F)c2)NC(C)=O)(c2cccc(C(C)(C)C)c2)CC1 (stereo not shown) [Example 195-6, N-[3-[1-(3-tert-Butyl-phenyl)-4-methoxy-cyclohexylamino]-1-(3,5-difluoro-benzyl)-2-hydroxy-propyl]-acetamide]	49%		
CC(=O)NC1CCC(NCC(O)C(Cc2cc(F)cc(F)c2)NC(C)=O)(c2cccc(C(C)(C)C)c2)CC1 (single isomer, unassigned) [196B-23 Diastereomer A, N-[3-[4-Acetylamino-1-(3-tert-butyl-phenyl)-cyclohexylamino]-1-(3,5-difluoro-benzyl)-2-hydroxy-propyl]-acetamide]			29.5
CONC1CCC(NCC(O)C(Cc2cc(F)cc(F)c2)NC(C)=O)(c2cccc(C(C)(C)C)c2)CC1 (single isomer, unassigned) [196B-11 Diastereomer A, N-(4-(1-(3-tert-butylphenyl)-4-(methoxyamino)cyclohexylamino)-1-(3,5-difluorophenyl)-3-hydroxybutan-2-yl)acetamide]			7.4
